This note sets out measurements from US20050101671A1, “Compounds and compositions for delivering active agents” (Emisphere Technologies, Inc., priority 1995, published 2005).

Data set [1] can be described thus: In vivo delivery of heparin by oral administration in rats, APTT (Table 6). Also on record: species or system rat. The note with it: heparin 100 mg/kg. How it is done: In a test tube, 900 mg of carrier were dissolved in 3 mL of propylene glycol, and 0.299 g of sodium heparin was dissolved in 3 mL of water. The solutions were mixed by vortex. Sodium hydroxide (10M) was added to the resulting mixture until a solution was obtained. The pH was then adjusted to 7.4±0.5 with concentrated hydrochloric acid, and the final solution was sonicated at 40° C. for 30 minutes.
A group of fasted, conscious rats were administered the dosing compositions by oral gavage. Blood samples were collected by cardiac puncture following the administration of ketamine (44 mg/kg). Heparin activity was determined by utilizing the activated partial thromboplastim time (APTT) according to the method of Henry, J. B., Clinical Diagnosis and Management by Laboratory Methods; Philadelphia. Pa.; W B Saunders (1979).
Heparin (100 mg/kg) was administered by oral gavage to rats, and heparin activity was determined according to the procedure of Example 44.

Data set [2] in a line: Delivery agent enhancement of rhGH bioavailability, subcutaneous administration in rats (Table 2). The format is in vivo, rat. The note with it: no delivery agent (0.0 mg/kg), rhGH alone (Comparative Example 16A).
Method: The delivery agents were reconstituted with distilled water and adjusted to pH 7.2-8.0 with either aqueous hydrochloric acid or aqueous sodium hydroxide. A stock solution of rhGH was prepared by mixing rhGH, D-mannitol and glycine and dissolving this mixture in 2% glycerol/water. The stock solution was then added to the delivery agent solution. Several delivery agent to active agent ratios were studied.
Male Sprague-Dawley rats weighing 200-250 g were fasted for 24 hours and administered ketamine (44 mg/kg) and chlorpromazine (1.5 mg/kg) 15 minutes prior to dosing. The rats were administered one of the dosing solutions described above by subcutaneous injection, intranasal instillation, or sublingual instillation. Blood samples were collected serially from the tail artery for serum calcium concentration determination or serum rhGH concentrations. The dose-of rhGH administered in these experiments was 0.
Serum rhGH concentrations were quantified by an rhGH enzyme immunoassay test kit.
Data set [3] is described as follows: In vivo delivery of rhGH in rats (Table 1), serum rhGH by ELISA. Set-up: species or system rat. The note with it: oral, no carrier, rhGH 6 mg/kg. The procedure: Dosing compositions were prepared by mixing the modified amino acids and recombinant human growth hormone (rhGH) as listed in Table 1 below in a phosphate buffer solution at a pH of about 7-8.
Rats were administered the dosing composition by sublingual, oral gavage, intraduodenal administration, or colonic administration. Delivery was evaluated by using an ELISA assay for rhGH from Medix Biotech, Inc. For intracolonic administration, a sample was prepared and dosed to fasted rats at 25 mg/kg of carrier in a buffered solution containing propylene glycol (0-50%) and 1 mg/kg rhGH.
On the technique in general: ELISA stands for enzyme-linked immunosorbent assay.

As to `O=C(O)CCCCCCCNC(=O)/C=C/c1ccccc1F` [Compound XII], the “Mean Peak APTT” value in data set [1] (carrier 300 mg/kg) turned out to be 49.53 ± 17.1 s. Regarding Heparin [reference compound], the “Mean Peak APTT” value in data set [1] (no carrier) worked out at 20.7 ± 0.17 s.

With “rhGH: recombinant human growth hormone, active agent dosed alone as comparative example”, in data set [2], the “Peak Serum [rhGH]” value was determined as 4 ± 2 ng/mL. Moreover, in data set [3], the “Mean Peak Serum Levels of rhGH” value is under 10 ± 10 ng/mL.
